Source: patent US10793885B2, “Compositions and methods for making noscapine and synthesis intermediates thereof” (priority 2013, dated 2020)

Tests used:
CXE1 = target: T1, CXE1 (Papaver somniferum, UniProt I3PLR2); test: In vitro CXE1 assay with purified recombinant protein; assay type: biochemical; conditions: native recombinant CXE1, pH 8.0, 30° C., 15 min
T1 construct: corresponding open reading frames were amplified using cDNA derived from total stem RNA of the Bea's Choice chemotype; His-tag (pRSETA leader) (N); made in house; host or cells: Escherichia coli Rosetta (DE3) pLysS
T1 sequence (I3PLR2 1-320): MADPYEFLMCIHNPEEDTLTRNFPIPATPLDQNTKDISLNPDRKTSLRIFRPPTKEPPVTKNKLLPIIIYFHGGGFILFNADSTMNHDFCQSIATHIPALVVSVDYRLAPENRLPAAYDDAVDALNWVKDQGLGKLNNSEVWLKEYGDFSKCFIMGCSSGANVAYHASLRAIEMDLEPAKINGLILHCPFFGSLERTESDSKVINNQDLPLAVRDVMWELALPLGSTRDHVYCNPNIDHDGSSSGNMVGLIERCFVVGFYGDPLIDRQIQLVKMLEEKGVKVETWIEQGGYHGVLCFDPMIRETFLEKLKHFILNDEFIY
From the text: (§1) The full-length coding region of CYP82X1 was amplified using cDNA derived from total stem RNA of the Bea's Choice chemotype using Takara Ex Taq DNA polymerase (Fisher Scientific, Ottawa, Canada), and using a primer 5′-[…]-3′ (SEQ ID NO: 607) and reverse primer 5′-[…]-3′ (SEQ ID NO: 608). Owing to problems with heterologous expression in yeast, CYP82X2 was synthesized with the first 60 N-terminal amino acids replaced with the first 43 N-terminal amino acids from the lettuce cytochrome P450 germacrene A oxidase Nguyen, D. T. et al. J. Biol. Chem. 285, 16588-16598 (2010). For heterologous expression of Flag-tagged CYPs in yeast (Saccharomyces cerevisiae), the full-length coding regions of CYP82X1 and CYP82X2 were inserted into the NotI and SpeI restriction sites of the dual plasmid pESC-leu2d::CPR Ro, D.-K., Ouellet, M., Paradise, E. M., Burd, H., Eng, D., Paddon, C. J., Newman, J. D., & Keesling, J. D. BMC Biotech. […] For heterologous expression of CXE1, CXE2, and AT1, corresponding open reading frames were amplified using cDNA derived from total stem RNA of the Bea's Choice chemotype and cloned in-frame an N-terminal His-tag sequence in the Escherichia coli expression vector pRSETA (Invitrogen, Carlsbad, Calif.). […] Microsomal fractions containing recombinant CYP82X1 or CYP82X2 were detected using a-FLAG antibodies, whereas recombinant CPR was detected using α-c-Myc antibodies (FIG. 12 A). […]

CXE2 = target: T2, CXE2 (Papaver somniferum, UniProt A0A0A1EQ07); test: In vitro CXE2 assay with purified recombinant protein; assay type: biochemical; conditions: E. coli produced CXE2
T2 construct: corresponding open reading frames were amplified using cDNA derived from total stem RNA of the Bea's Choice chemotype; His-tag (pRSETA leader) (N); made in house; host or cells: Escherichia coli Rosetta (DE3) pLysS
T2 sequence (A0A0A1EQ07 1-313): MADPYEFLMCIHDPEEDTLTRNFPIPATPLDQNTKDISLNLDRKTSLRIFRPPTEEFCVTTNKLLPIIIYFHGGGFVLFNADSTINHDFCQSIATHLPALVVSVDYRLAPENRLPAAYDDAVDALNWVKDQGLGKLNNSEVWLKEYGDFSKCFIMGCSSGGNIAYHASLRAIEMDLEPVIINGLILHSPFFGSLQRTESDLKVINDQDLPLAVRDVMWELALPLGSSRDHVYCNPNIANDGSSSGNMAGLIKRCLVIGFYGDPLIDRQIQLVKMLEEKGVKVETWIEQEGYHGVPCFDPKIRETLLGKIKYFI
From the text: as §1

CYP82X2 = target: T3, CYP82X2 (UniProt D5J9U8+I3PLR0); test: In vitro enzyme assay with yeast microsomal fractions containing CYP82X2 (CPR/82X2); assay type: biochemical, Papaver somniferum; conditions: yeast microsomes (CPR/82X2), extracted ion chromatograms, FIG. 13
T3 construct: the full-length coding regions of CYP82X1 and CYP82X2 were inserted into the NotI and SpeI restriction sites; FLAG; made in house; host or cells: Saccharomyces cerevisiae YPL 154C:Pep4, microsomal fraction
T3 sequence (D5J9U8+I3PLR0 with tags, fused parts or gaps): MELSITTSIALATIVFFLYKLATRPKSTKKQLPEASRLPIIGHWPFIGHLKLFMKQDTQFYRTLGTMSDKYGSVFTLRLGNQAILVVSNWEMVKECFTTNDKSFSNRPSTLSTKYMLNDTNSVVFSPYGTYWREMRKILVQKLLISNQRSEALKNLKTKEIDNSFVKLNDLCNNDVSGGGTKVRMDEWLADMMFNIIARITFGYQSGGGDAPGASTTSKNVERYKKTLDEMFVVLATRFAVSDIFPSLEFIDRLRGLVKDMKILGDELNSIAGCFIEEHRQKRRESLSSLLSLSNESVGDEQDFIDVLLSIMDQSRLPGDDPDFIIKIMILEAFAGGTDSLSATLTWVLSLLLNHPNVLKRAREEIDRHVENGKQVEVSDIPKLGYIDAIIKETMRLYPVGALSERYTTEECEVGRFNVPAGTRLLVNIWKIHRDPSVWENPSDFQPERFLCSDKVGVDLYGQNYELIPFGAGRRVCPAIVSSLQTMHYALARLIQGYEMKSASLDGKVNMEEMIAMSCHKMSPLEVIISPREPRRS
From the text: (§2) The full-length coding region of CYP82X1 was amplified using cDNA derived from total stem RNA of the Bea's Choice chemotype using Takara Ex Taq DNA polymerase (Fisher Scientific, Ottawa, Canada), and using a primer 5′-[…]-3′ (SEQ ID NO: 607) and reverse primer 5′-[…]-3′ (SEQ ID NO: 608). Owing to problems with heterologous expression in yeast, CYP82X2 was synthesized with the first 60 N-terminal amino acids replaced with the first 43 N-terminal amino acids from the lettuce cytochrome P450 germacrene A oxidase Nguyen, D. T. et al. J. Biol. Chem. 285, 16588-16598 (2010). For heterologous expression of Flag-tagged CYPs in yeast (Saccharomyces cerevisiae), the full-length coding regions of CYP82X1 and CYP82X2 were inserted into the NotI and SpeI restriction sites of the dual plasmid pESC-leu2d::CPR Ro, D.-K., Ouellet, M., Paradise, E. M., Burd, H., Eng, D., Paddon, C. J., Newman, J. D., & Keesling, J. D. BMC Biotech. 8, 83 (2008) yielding pESC-Leu2d::CYP82X1/CPR and pESC-Leu2d::CYP82X2/CPR. The protease-deficient yeast strain YPL 154C:Pep4 was transformed with pESC-Leu2d::CYP82X1/CPR and pESC-Leu2d::CYP82X2/CPR. Yeast culture, microsome preparation, and immunoblot analysis were performed as described previously Dang, T.-T. T. & Facchini, P. J. J. Biol. Chem. 289, 2013-2026 (2014). For heterologous expression of CXE1, CXE2, and AT1, corresponding open reading frames were amplified using cDNA derived from total stem RNA of the Bea's Choice chemotype and cloned in-frame an N-terminal His-tag sequence in the Escherichia coli expression vector pRSETA (Invitrogen, Carlsbad, Calif.). CXE1 and CXE2 were individually inserted into the SacI and HindIII restriction sties, whereas AT1 was inserted into the KpnI and HindIII sites, of pRSETA using a primer 5′-[…]-3′ (SEQ ID NO: 609) and reverse primer 5′-[…]-3′ (SEQ ID NO: 610). […] Microsomal fractions containing recombinant CYP82X1 or CYP82X2 were detected using a-FLAG antibodies, whereas recombinant CPR was detected using α-c-Myc antibodies (FIG. 12 A). […]

CYP82X1 = target: T4, CYP82X1 (Papaver somniferum, UniProt I3V6B7); test: In vitro enzyme assay with yeast microsomal fractions containing CYP82X1 (CPR/82X1); assay type: biochemical; conditions: yeast microsomes (CPR/82X1), extracted ion chromatograms, FIG. 13
T4 construct: The full-length coding region of CYP82X1 was amplified using cDNA derived from total stem RNA of the Bea's Choice chemotype; FLAG; made in house; host or cells: Saccharomyces cerevisiae YPL 154C:Pep4, microsomal fraction
T4 sequence (I3V6B7 1-540): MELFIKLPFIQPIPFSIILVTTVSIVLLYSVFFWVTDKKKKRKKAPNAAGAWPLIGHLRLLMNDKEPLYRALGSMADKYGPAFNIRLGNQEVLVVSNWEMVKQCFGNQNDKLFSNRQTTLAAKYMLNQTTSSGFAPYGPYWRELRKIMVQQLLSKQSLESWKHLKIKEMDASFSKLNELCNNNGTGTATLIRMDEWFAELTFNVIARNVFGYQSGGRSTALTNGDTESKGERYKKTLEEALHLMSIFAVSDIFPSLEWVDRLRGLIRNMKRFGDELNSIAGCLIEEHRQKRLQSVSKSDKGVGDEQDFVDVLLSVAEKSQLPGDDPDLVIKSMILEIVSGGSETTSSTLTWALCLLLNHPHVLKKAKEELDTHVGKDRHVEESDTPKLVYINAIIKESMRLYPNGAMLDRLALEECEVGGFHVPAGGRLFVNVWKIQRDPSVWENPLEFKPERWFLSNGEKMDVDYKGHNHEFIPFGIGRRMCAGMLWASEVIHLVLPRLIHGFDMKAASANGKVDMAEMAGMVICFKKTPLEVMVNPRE
From the text: as §2

AT1 = target: T5, AT1 (Papaver somniferum, UniProt I3PLR4); test: In vitro AT1 assay with purified recombinant protein; assay type: biochemical; conditions: native recombinant AT1, 50 μM acetyl-CoA, pH 8.0, 30° C., 15 min
T5 construct: corresponding open reading frames were amplified using cDNA derived from total stem RNA of the Bea's Choice chemotype; His-tag (pRSETA leader) (N); made in house; host or cells: Escherichia coli Rosetta (DE3) pLysS
T5 sequence (I3PLR4 1-471): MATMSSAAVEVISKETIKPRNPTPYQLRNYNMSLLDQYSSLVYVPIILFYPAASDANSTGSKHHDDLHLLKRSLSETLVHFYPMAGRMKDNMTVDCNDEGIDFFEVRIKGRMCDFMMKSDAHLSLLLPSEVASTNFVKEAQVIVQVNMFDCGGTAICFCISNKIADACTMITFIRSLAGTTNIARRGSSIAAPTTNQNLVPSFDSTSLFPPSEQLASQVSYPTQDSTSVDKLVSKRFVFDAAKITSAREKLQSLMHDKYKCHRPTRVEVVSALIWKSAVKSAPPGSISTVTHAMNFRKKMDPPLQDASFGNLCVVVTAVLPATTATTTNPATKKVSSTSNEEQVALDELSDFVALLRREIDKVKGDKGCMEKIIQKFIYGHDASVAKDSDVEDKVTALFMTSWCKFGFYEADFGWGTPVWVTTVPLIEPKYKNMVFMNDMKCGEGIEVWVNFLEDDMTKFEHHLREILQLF
From the text: as §1

Compound	conversion as substrate by CXE1 (CXE1)	conversion as substrate by CXE2 (CXE2)	conversion as substrate by CYP82X2 (CYP82X2)	conversion as substrate by CYP82X1 (CYP82X1)	conversion as substrate by AT1 (AT1)
COc1ccc(C(OC(C)=O)C2c3c(cc4c(c3OC)OCO4)CCN2C)c(C=O)c1OC (centres unmarked) [3-O-acetylpapaveroxine]	yielding papaveroxine	form narcotine hemiacetal	–	–	–
COc1ccc2c(c1OC)C[N+]1(C)CCc3cc4c(c(O)c3C1C2O)OCO4 [(S)-1,13-dihydroxy-N-methylcanadine]	–	–	No products were detected	No products were detected	forming (S)-1-hydroxy-13-O-acetyl-N-methylcanadine
